Laboratory results reported in the supplement of paper PMC3937590.

What was measured:
Assay in all cases: -log10 GI50 (growth inhibition 50%) (-log10(M)); higher = more potent growth inhibition
MCF12A = tested on: MCF12A
Method in brief: (§1)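 Breast cancer cell lines were exposed to each compound for 72 hours at nine doses in 1:5 serial dilution, in triplicate, with a luminescence read-out against a time-zero plate. A Gompertz curve was fitted to the dose-response data by nonlinear least squares. The value is minus log10 of GI50, the molar concentration giving the set level of growth inhibition. Values equal to the top dose carry a < qualifier.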

SKBR3 = tested on: SKBR3
Method in brief: as §1

BT483 = tested on: BT483
Method in brief: as §1

MDAMB361 = tested on: MDAMB361
Method in brief: as §1

SUM149PT = tested on: SUM149PT
Method in brief: as §1

HCC1187 = tested on: HCC1187
Method in brief: as §1

HCC70 = tested on: HCC70
Method in brief: as §1

LY2 = tested on: LY2
Method in brief: as §1

HCC1954 = tested on: HCC1954
Method in brief: as §1

184A1 = tested on: 184A1
Method in brief: as §1

HS578T = tested on: HS578T
Method in brief: as §1

MDAMB175VII = tested on: MDAMB175VII
Method in brief: as §1

HCC38 = tested on: HCC38
Method in brief: as §1

MDAMB415 = tested on: MDAMB415
Method in brief: as §1

T47D = tested on: T47D
Method in brief: as §1

MDAMB231 = tested on: MDAMB231
Method in brief: as §1

MCF10F = tested on: MCF10F
Method in brief: as §1

SUM229PE = tested on: SUM229PE
Method in brief: as §1

SUM159PT = tested on: SUM159PT
Method in brief: as §1

UACC812 = tested on: UACC812
Method in brief: as §1

SMILES	-log10 GI50 (MCF12A)	-log10 GI50 (SKBR3)	-log10 GI50 (BT483)	-log10 GI50 (MDAMB361)	-log10 GI50 (SUM149PT)	-log10 GI50 (HCC1187)	-log10 GI50 (HCC70)	-log10 GI50 (LY2)	-log10 GI50 (HCC1954)	-log10 GI50 (184A1)	-log10 GI50 (HS578T)	-log10 GI50 (MDAMB175VII)	-log10 GI50 (HCC38)	-log10 GI50 (MDAMB415)	-log10 GI50 (T47D)	-log10 GI50 (MDAMB231)	-log10 GI50 (MCF10F)	-log10 GI50 (SUM229PE)	-log10 GI50 (SUM159PT)	-log10 GI50 (UACC812)
O=C1c2ccccc2-[n+]2ccc3c([nH]c4ccccc43)c21 [Fascaplysin]	6.45	6.65	7.18	7.09	6.4	7.83	6.9	8.1	6.57	6.4	5.98	6.68	6.56	7.22	6.34	6.6	6.58	6.51	6.37	–
C[C@@H](Oc1cc(-c2cnn(C3CCNCC3)c2)cnc1N)c1c(Cl)ccc(F)c1Cl	5.38	5.14	–	5.44	5.7	7.24	5.46	5.8	5.45	5.78	5.85	5.23	5.63	5.69	5.34	5.47	5.61	5.57	5.79	5.02
CCN(CC)CCNC(=O)c1c(C)[nH]c(/C=C2\C(=O)Nc3ccc(F)cc32)c1C [Sunitinib malate]	5.19	5.17	4.73	4.92	5.57	5.26	5.6	5.14	5.26	5.37	5.37	5.18	5.24	5.25	4.94	5.44	5.39	5.46	5.81	–
CC/C(=C(\c1ccccc1)c1ccc(OCCN(C)C)cc1)c1ccccc1 [Tamoxifen]	4.89	4.37	5.47	< 3.78	4.11	4.36	< 3.78	4.25	4.54	< 3.78	< 3.78	< 3.78	4.28	4.47	< 3.78	< 3.78	< 3.78	5.62	3.93	–
CNC(=O)c1cc(Oc2ccc(NC(=O)Nc3ccc(Cl)c(C(F)(F)F)c3)cc2)ccn1 [Sorafenib]	4.62	4.35	4.92	4.22	4.8	4.49	4.45	–	4.29	5.53	< 3	4.46	4.07	3.96	4.59	3.84	4.46	5	4.66	–
Cn1ncc(Cl)c1-c1cc(C(=O)N[C@H](CN)Cc2ccc(F)c(F)c2)oc1Cl	5.57	6.93	–	6.65	7.42	8.02	8.68	6.62	–	–	5.58	6.56	5.99	7.24	7.35	5.09	5.45	5.59	6.28	7.18
